From ChEMBL document CHEMBL4507275, “Data for DCP probe BI-2545” (2021)

Key:
[1] = molecular target: AP2-associated protein kinase 1 (Homo sapiens) (UniProt Q2M2I8); settings: Compound concentration 1000.0 nM
[2] = test system: Tyrosine-protein kinase ABL1 (Homo sapiens), P00519 [F317I]; settings: Compound concentration 1000.0 nM
[3] = molecular target: Activin receptor type-1 (Homo sapiens) (UniProt Q04771); settings: Compound concentration 1000.0 nM
[4] = molecular target: Atypical kinase COQ8A, mitochondrial (Homo sapiens) (UniProt Q8NI60); settings: Compound concentration 1000.0 nM
[5] = molecular target: Calcium/calmodulin-dependent protein kinase type 1B (Homo sapiens) (UniProt Q6P2M8); settings: Compound concentration 1000.0 nM
[6] = molecular target: Calcium/calmodulin-dependent protein kinase kinase 2 (Homo sapiens) (UniProt Q96RR4); settings: Compound concentration 1000.0 nM
[7] = molecular target: Cyclin-dependent kinase 11B (Homo sapiens) (UniProt P21127); settings: Compound concentration 1000.0 nM
[8] = molecular target: Serine/threonine-protein kinase Chk2 (Homo sapiens) (UniProt O96017); settings: Compound concentration 1000.0 nM
[9] = molecular target: Macrophage colony-stimulating factor 1 receptor (Homo sapiens) (UniProt P07333); settings: Compound concentration 1000.0 nM
[10] = molecular target: Casein kinase I isoform epsilon (Homo sapiens) (UniProt P49674); settings: Compound concentration 1000.0 nM
[11] = molecular target: Vascular endothelial growth factor receptor 1 (Homo sapiens) (UniProt P17948); settings: Compound concentration 1000.0 nM
[12] = test system: Receptor-type tyrosine-protein kinase FLT3 (Homo sapiens), P36888 [N841I]; settings: Compound concentration 1000.0 nM
[13] = molecular target: Mitogen-activated protein kinase kinase kinase kinase 1 (Homo sapiens) (UniProt Q92918); settings: Compound concentration 1000.0 nM
[14] = molecular target: MAP kinase-activated protein kinase 2 (Homo sapiens) (UniProt P49137); settings: Compound concentration 1000.0 nM
[15] = molecular target: Dual specificity mitogen-activated protein kinase kinase 6 (Homo sapiens) (UniProt P52564); settings: Compound concentration 1000.0 nM
[16] = test system: Hepatocyte growth factor receptor (Homo sapiens), P08581 [Y1235D]; settings: Compound concentration 1000.0 nM
[17] = molecular target: Serine/threonine-protein kinase MRCK beta (Homo sapiens) (UniProt Q9Y5S2); settings: Compound concentration 1000.0 nM
[18] = molecular target: Serine/threonine-protein kinase 3 (Homo sapiens) (UniProt Q13188); settings: Compound concentration 1000.0 nM
[19] = molecular target: Serine/threonine-protein kinase Nek3 (Homo sapiens) (UniProt P51956); settings: Compound concentration 1000.0 nM
[20] = molecular target: Serine/threonine-protein kinase Nek9 (Homo sapiens) (UniProt Q8TD19); settings: Compound concentration 1000.0 nM
[21] = molecular target: Mitogen-activated protein kinase kinase kinase 14 (Homo sapiens) (UniProt Q99558); settings: Compound concentration 1000.0 nM
[22] = molecular target: Serine/threonine-protein kinase PAK 1 (Homo sapiens) (UniProt Q13153); settings: Compound concentration 1000.0 nM
[23] = molecular target: Serine/threonine-protein kinase PAK 6 (Homo sapiens) (UniProt Q9NQU5); settings: Compound concentration 1000.0 nM
[24] = molecular target: 3-phosphoinositide-dependent protein kinase 1 (Homo sapiens) (UniProt O15530); settings: Compound concentration 1000.0 nM
[25] = molecular target: Cyclin-dependent kinase 14 (Homo sapiens) (UniProt O94921); settings: Compound concentration 1000.0 nM
[26] = molecular target: Phosphorylase b kinase regulatory subunit alpha, liver isoform (Homo sapiens) (UniProt P46019); settings: Compound concentration 1000.0 nM
[27] = test system: Phosphatidylinositol 4,5-bisphosphate 3-kinase catalytic subunit alpha isoform (Homo sapiens), P42336 [H1047Y]; settings: Compound concentration 1000.0 nM
[28] = test system: Phosphatidylinositol 4,5-bisphosphate 3-kinase catalytic subunit alpha isoform (Homo sapiens), P42336 [M1043I]; settings: Compound concentration 1000.0 nM
[29] = molecular target: Serine/threonine-protein kinase pim-3 (Homo sapiens) (UniProt Q86V86); settings: Compound concentration 1000.0 nM
[30] = molecular target: Serine/threonine-protein kinase PLK1 (Homo sapiens) (UniProt P53350); settings: Compound concentration 1000.0 nM
[31] = molecular target: Ribosomal protein S6 kinase alpha-4 (Homo sapiens) (UniProt O75676); settings: Compound concentration 1000.0 nM
[32] = molecular target: Ribosomal protein S6 kinase alpha-5 (Homo sapiens) (UniProt O75582); settings: Compound concentration 1000.0 nM
[33] = molecular target: SRSF protein kinase 1 (Homo sapiens) (UniProt Q96SB4); settings: Compound concentration 1000.0 nM
[34] = molecular target: SRSF protein kinase 3 (Homo sapiens) (UniProt Q9UPE1); settings: Compound concentration 1000.0 nM
[35] = molecular target: Activated CDC42 kinase 1 (Homo sapiens) (UniProt Q07912); settings: Compound concentration 1000.0 nM
[36] = molecular target: High affinity nerve growth factor receptor (Homo sapiens) (UniProt P04629); settings: Compound concentration 1000.0 nM
[37] = molecular target: Serine/threonine-protein kinase VRK2 (Homo sapiens) (UniProt Q86Y07); settings: Compound concentration 1000.0 nM
[38] = molecular target: Serine/threonine-protein kinase WNK4 (Homo sapiens) (UniProt Q96J92); settings: Compound concentration 1000.0 nM
[39] = molecular target: Mitogen-activated protein kinase kinase kinase 20 (Homo sapiens) (UniProt Q9NYL2); settings: Compound concentration 1000.0 nM
[40] = molecular target: Histamine H3 receptor (Homo sapiens) (UniProt Q9Y5N1); settings: Compound concentration 10.0 uM
[41] = molecular target: Alpha-2C adrenergic receptor (Homo sapiens) (UniProt P18825); settings: Compound concentration 10.0 uM
[42] = molecular target: GABA-A receptor; anion channel (Rattus norvegicus) (UniProt O09028+P15431+P18506+P18508+P19969+P20236+P23574+P23576+P28471+P28473+P30191+P62813+P63079+P63138+Q91ZM7+Q9ES14); settings: Compound concentration 10.0 uM
[43] = molecular target: Alpha-1D adrenergic receptor (Homo sapiens) (UniProt P25100); settings: Compound concentration 10.0 uM

High affinity nerve growth factor receptor (Homo sapiens), sequence (P04629 33-796 limits assumed): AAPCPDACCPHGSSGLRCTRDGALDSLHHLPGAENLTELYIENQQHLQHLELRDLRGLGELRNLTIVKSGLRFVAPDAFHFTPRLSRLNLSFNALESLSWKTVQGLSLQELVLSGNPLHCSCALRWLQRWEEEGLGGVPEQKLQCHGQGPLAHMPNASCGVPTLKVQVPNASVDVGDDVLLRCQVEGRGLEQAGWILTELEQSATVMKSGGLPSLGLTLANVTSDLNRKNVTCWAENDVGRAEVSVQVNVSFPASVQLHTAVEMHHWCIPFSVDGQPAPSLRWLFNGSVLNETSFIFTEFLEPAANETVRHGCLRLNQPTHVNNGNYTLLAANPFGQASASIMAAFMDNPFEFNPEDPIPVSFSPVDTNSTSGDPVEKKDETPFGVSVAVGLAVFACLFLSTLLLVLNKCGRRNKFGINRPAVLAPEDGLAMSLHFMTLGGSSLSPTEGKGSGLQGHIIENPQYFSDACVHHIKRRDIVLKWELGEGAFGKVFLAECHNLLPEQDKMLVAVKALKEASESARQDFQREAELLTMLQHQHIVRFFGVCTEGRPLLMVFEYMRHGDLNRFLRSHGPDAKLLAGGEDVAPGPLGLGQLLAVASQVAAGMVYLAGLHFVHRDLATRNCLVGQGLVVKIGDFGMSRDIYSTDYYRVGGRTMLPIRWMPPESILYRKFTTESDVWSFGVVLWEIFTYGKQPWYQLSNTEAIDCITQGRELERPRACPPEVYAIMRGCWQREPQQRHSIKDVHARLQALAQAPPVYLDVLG
Serine/threonine-protein kinase VRK2 (Homo sapiens), sequence (Q86Y07 whole entry): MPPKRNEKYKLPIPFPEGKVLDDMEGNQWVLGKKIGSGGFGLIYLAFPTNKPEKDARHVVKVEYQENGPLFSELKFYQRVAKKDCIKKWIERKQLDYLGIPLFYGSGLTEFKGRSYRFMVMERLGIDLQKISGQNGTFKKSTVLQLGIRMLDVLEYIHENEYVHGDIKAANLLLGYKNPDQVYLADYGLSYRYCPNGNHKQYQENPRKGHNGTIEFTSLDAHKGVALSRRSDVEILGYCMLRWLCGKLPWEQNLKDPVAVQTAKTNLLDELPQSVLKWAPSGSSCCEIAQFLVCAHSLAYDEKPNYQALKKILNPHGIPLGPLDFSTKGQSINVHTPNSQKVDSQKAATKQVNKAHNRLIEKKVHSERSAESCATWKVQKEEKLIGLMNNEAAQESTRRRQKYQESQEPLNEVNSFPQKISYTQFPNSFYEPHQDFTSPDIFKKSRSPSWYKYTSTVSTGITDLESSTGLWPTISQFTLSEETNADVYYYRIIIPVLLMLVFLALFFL
Serine/threonine-protein kinase 3 (Homo sapiens), sequence (Q13188 whole entry): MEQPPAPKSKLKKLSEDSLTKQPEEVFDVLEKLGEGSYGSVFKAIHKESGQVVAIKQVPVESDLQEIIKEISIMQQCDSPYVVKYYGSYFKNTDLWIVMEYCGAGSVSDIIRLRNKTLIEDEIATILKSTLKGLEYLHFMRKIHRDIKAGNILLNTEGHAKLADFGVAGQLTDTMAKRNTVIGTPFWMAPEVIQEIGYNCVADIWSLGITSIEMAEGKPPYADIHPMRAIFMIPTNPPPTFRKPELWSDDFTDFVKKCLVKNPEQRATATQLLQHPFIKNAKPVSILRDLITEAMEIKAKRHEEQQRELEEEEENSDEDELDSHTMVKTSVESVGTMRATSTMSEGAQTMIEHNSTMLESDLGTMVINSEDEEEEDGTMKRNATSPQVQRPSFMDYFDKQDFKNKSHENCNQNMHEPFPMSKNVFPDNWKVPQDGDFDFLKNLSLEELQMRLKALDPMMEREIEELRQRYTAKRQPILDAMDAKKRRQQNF
Casein kinase I isoform epsilon (Homo sapiens), sequence (P49674 whole entry, looked up, canonical isoform): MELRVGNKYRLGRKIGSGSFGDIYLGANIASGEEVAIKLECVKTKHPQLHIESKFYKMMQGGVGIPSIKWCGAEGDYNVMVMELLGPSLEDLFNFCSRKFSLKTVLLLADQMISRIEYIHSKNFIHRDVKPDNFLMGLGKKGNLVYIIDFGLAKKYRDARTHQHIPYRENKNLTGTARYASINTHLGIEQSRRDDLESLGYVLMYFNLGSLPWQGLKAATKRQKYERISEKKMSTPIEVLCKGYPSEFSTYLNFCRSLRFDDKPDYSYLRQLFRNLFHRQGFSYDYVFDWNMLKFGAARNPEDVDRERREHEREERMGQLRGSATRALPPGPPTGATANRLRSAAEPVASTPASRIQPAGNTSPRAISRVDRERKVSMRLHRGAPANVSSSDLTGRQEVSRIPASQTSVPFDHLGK
Dual specificity mitogen-activated protein kinase kinase 6 (Homo sapiens), sequence (P52564 whole entry): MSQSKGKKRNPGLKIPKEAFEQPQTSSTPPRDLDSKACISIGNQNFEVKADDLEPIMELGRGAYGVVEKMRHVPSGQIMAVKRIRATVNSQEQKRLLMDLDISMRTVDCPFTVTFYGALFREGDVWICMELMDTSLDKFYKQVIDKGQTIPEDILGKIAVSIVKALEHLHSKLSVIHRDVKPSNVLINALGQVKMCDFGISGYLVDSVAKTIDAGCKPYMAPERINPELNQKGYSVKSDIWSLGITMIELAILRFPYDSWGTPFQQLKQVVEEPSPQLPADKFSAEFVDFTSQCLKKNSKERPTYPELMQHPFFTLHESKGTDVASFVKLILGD
Activin receptor type-1 (Homo sapiens), sequence (Q04771 whole entry): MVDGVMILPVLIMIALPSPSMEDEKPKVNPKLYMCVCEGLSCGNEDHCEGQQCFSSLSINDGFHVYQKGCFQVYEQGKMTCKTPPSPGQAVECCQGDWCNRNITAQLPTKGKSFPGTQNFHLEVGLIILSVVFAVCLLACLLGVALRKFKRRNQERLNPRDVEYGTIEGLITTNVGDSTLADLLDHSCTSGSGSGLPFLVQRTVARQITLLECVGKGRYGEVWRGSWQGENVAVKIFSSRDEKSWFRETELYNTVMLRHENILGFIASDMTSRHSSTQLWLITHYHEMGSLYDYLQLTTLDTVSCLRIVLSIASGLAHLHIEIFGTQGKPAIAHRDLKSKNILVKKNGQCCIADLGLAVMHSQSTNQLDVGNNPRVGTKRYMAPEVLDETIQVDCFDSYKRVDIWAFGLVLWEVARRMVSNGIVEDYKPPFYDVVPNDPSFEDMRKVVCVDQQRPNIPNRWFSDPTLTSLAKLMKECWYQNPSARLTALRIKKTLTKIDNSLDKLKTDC
Histamine H3 receptor (Homo sapiens), sequence (Q9Y5N1 whole entry): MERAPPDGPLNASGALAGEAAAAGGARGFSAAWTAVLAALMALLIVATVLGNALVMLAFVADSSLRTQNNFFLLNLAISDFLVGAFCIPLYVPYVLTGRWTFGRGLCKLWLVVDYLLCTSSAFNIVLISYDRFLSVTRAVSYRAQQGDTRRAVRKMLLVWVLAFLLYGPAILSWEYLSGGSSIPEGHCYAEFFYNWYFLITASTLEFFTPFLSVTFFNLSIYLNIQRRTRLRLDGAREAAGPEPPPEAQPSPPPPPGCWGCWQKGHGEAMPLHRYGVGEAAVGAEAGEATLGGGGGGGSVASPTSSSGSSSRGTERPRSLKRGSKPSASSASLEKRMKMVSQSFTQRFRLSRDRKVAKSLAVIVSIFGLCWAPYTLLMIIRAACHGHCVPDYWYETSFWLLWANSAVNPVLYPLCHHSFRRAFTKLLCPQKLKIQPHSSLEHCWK
Calcium/calmodulin-dependent protein kinase type 1B (Homo sapiens), sequence (Q6P2M8 whole entry): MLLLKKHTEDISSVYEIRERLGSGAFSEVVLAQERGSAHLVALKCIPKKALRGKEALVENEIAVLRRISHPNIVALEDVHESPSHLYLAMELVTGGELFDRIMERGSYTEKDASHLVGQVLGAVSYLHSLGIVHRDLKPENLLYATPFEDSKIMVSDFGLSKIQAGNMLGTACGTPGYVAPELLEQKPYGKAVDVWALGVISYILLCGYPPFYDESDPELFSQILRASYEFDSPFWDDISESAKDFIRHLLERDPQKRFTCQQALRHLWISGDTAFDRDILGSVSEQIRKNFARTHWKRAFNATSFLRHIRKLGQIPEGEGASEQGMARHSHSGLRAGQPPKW
3-phosphoinositide-dependent protein kinase 1 (Homo sapiens), sequence (O15530 whole entry): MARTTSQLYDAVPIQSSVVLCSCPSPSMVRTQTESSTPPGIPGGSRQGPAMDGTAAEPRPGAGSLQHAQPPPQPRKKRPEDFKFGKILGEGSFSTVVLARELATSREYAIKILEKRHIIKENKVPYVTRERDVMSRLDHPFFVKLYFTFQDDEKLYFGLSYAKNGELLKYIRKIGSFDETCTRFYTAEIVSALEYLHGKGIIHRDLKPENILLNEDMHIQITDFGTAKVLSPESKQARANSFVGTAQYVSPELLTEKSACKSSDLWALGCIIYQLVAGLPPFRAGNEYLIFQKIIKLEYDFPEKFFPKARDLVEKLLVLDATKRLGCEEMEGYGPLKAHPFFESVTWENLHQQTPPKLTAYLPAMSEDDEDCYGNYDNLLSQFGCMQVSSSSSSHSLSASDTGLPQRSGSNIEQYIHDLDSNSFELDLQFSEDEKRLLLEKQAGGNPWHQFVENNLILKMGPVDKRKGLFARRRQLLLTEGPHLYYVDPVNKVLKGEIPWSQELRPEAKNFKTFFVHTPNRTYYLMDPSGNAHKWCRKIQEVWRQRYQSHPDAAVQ
Atypical kinase COQ8A, mitochondrial (Homo sapiens), sequence (Q8NI60 163-647 limits assumed): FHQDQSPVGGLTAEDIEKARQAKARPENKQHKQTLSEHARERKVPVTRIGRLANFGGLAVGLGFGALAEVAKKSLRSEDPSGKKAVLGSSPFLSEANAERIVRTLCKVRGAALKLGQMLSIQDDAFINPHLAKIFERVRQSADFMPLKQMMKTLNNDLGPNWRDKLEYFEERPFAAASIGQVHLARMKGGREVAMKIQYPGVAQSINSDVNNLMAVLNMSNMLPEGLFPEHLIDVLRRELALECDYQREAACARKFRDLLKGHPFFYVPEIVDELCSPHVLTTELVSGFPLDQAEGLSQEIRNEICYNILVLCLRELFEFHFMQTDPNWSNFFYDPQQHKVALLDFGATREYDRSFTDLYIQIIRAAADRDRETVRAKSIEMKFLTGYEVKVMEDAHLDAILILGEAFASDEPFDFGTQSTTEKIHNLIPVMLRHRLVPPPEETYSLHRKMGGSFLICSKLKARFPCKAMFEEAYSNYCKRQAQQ

## O=C(NC[C@@H]1[C@H]2CN(C(=O)OCc3cc(C(F)(F)F)cc(C(F)(F)F)c3)C[C@@H]12)c1ccc2[nH]nnc2c1 [BI 2545]
[1]
  residual activity: 96%
[2]
  residual activity: 89%
[3]
  residual activity: 100%
[4]
  residual activity: 100%
[5]
  residual activity: 100%
[6]
  residual activity: 91%
[7]
  residual activity: 100%
[8]
  residual activity: 86%
[9]
  residual activity: 99%
[10]
  residual activity: 100%
[11]
  residual activity: 82%
[12]
  residual activity: 90%
[13]
  residual activity: 83%
[14]
  residual activity: 100%
[15]
  residual activity: 72%
[16]
  residual activity: 76%
[17]
  residual activity: 100%
[18]
  residual activity: 87%
[19]
  residual activity: 100%
[20]
  residual activity: 77%
[21]
  residual activity: 77%
[22]
  residual activity: 100%
[23]
  residual activity: 93%
[24]
  residual activity: 96%
[25]
  residual activity: 96%
[26]
  residual activity: 100%
[27]
  residual activity: 62%
[28]
  residual activity: 95%
[29]
  residual activity: 100%
[30]
  residual activity: 100%
[31]
  residual activity: 86%
[32]
  residual activity: 100%
[33]
  residual activity: 81%
[34]
  residual activity: 100%
[35]
  residual activity: 100%
[36]
  residual activity: 85%
[37]
  residual activity: 100%
[38]
  residual activity: 89%
[39]
  residual activity: 86%
[40]
  inhibition: -5.26%
[41]
  inhibition: 19%
[42]
  inhibition: -4.02%
[43]
  inhibition: -1.41%

## Cc1nccc(COC(=O)N2C[C@@H]3[C@@H](CNC(=O)c4ccc5[nH]nnc5c4)[C@@H]3C2)n1 [BI 3017]
[1]
  residual activity: 100%
[2]
  residual activity: 100%
[3]
  residual activity: 95%
[4]
  residual activity: 84%
[5]
  residual activity: 83%
[6]
  residual activity: 100%
[7]
  residual activity: 100%
[8]
  residual activity: 100%
[9]
  residual activity: 88%
[10]
  residual activity: 100%
[11]
  residual activity: 100%
[12]
  residual activity: 82%
[13]
  residual activity: 100%
[14]
  residual activity: 72%
[15]
  residual activity: 100%
[16]
  residual activity: 92%
[17]
  residual activity: 82%
[18]
  residual activity: 97%
[19]
  residual activity: 100%
[20]
  residual activity: 100%
[21]
  residual activity: 66%
[22]
  residual activity: 92%
[23]
  residual activity: 95%
[24]
  residual activity: 100%
[25]
  residual activity: 100%
[26]
  residual activity: 97%
[27]
  residual activity: 82%
[28]
  residual activity: 100%
[29]
  residual activity: 97%
[30]
  residual activity: 92%
[31]
  residual activity: 90%
[32]
  residual activity: 95%
[33]
  residual activity: 80%
[34]
  residual activity: 100%
[35]
  residual activity: 100%
[36]
  residual activity: 94%
[37]
  residual activity: 29%
[38]
  residual activity: 100%
[39]
  residual activity: 90%
[40]
  inhibition: 9.03%
[41]
  inhibition: 3.82%
[42]
  inhibition: 14.2%
[43]
  inhibition: -6.43%
